# In article PMC6213879, “Synthesis and Biological Evaluation of Novel Dehydroabietic Acid-Oxazolidinone Hybrids for Antitumor Properties” (International Journal of Molecular Sciences, 2018):
# Assays:
# Format in all cases: cell-based
# [1] = system: NCI-H460 human lung cancer cell line; assay: MTT cytotoxicity assay, NCI-H460; settings: Homo sapiens, NCI-H460, 48 h, mean ± SD from three independent experiments
# Procedure: (§1) The in vitro antiproliferative activity of the DHAA derivatives 3a–o and 4a–o against four human cancer cell lines (MGC-803 human gastric cancer cell line, CNE-2 human nasopharyngeal carcinoma cell line, SK-OV-3 human ovarian carcinoma cell line, NCI-H460 human lung cancer cell line) and the human normal liver cell line LO2 were evaluated by MTT (methyl thiazolytetrazolium) assay and compared with the parent compound DHAA and the positive control cisplatin in each panel.
# (§2) The cytotoxicity of the compounds was evaluated against NCI-H460, MGC-803, SK-OV-3, CNE-2 and LO2 using an MTT assay. Cells were grown on 96-well micro-plates at a density of 4 × 10^3 cells per well in DMEM (dulbecco’s modified eagle medium) medium with 10% FBS (fetal bovine serum). The plates were incubated at 37 °C with 5% CO2. The cells were then exposed to different concentrations of target compounds and cisplatin and incubated for another 48 h. Control wells were formed by culture media with the maximum concentration of DMSO used in each assay (1‰). The cells were stained with 20 µL of MTT in an incubator for about 4 h. The medium was thrown away and replaced by […] DMSO. The absorbance (OD) value was read at 490 nm on an enzyme labeling instrument. Each experiment was repeated at least three times to obtain the mean values.
# [2] = system: MGC-803 human gastric cancer cell line; assay: MTT cytotoxicity assay, MGC-803; settings: Homo sapiens, MGC-803, 48 h, mean ± SD from three independent experiments
# Procedure: as §1, §2
# [3] = system: CNE-2 human nasopharyngeal carcinoma cell line; assay: MTT cytotoxicity assay, CNE-2; settings: Homo sapiens, CNE-2, 48 h, mean ± SD from three independent experiments
# Procedure: as §1, §2
# [4] = system: human normal liver cell line LO2; assay: MTT cytotoxicity assay, normal LO2 cells; settings: Homo sapiens, L02, 48 h, mean ± SD from three independent experiments
# Procedure: as §1, §2
# [5] = system: SK-OV-3 human ovarian carcinoma cell line; assay: MTT cytotoxicity assay, SK-OV-3; settings: Homo sapiens, SK-OV-3, 48 h, mean ± SD from three independent experiments
# Procedure: as §1, §2
SMILES,IC50 [1],IC50 [2],IC50 [3],IC50 [4],IC50 [5]
"CC(C)c1ccc2c(c1)CCC1[C@](C)(C(=O)OCC(O)CNc3ccccc3)CCC[C@]21C (stereo partly drawn) [Compound 3a, (1R,4aS)-2-Hydroxy-3-(Phenylamino)Propyl-7-Isopropyl-1,4a-Dimethyl-1,2,3,4,4a,9,10,10a-Octahydrophenanthrene-1-Carboxylate]",18.6 ± 0.97 µM,7.1 ± 1.51 µM,27.87 ± 0.25 µM,> 100 µM,15.1 ± 0.57 µM
"Cc1ccccc1NCC(O)COC(=O)[C@]1(C)CCC[C@]2(C)c3ccc(C(C)C)cc3CCC12 (stereo partly drawn) [Compound 3b, (1R,4aS)-2-Hydroxy-3-(2-Methylphenylamino)Propyl-7-Isopropyl-1,4a-Dimethyl-1,2,3,4,4a,9,10, 10a-Octahydrophenanthrene-1-Carboxylate]",> 100 µM,22.6 ± 2.71 µM,> 100 µM,> 100 µM,> 100 µM
"Cc1cccc(NCC(O)COC(=O)[C@]2(C)CCC[C@]3(C)c4ccc(C(C)C)cc4CCC23)c1 (stereo partly drawn) [Compound 3c, (1R,4aS)-2-Hydroxy-3-(3-Methylphenylamino)Propyl-7-Isopropyl-1,4a-Dimethyl-1,2,3,4,4a,9,10, 10a-Octahydrophenanthrene-1-Carboxylate]",20.1 ± 2.95 µM,12.3 ± 4.87 µM,14.6 ± 0.19 µM,34.7 ± 0.45 µM,14.8 ± 4.03 µM
"Cc1ccc(NCC(O)COC(=O)[C@]2(C)CCC[C@]3(C)c4ccc(C(C)C)cc4CCC23)cc1 (stereo partly drawn) [Compound 3d, (1R,4aS)-2-Hydroxy-3-(4-Methylphenylamino)Propyl-7-Isopropyl-1,4a-Dimethyl-1,2,3,4,4a,9,10, 10a-Octahydrophenanthrene-1-Carboxylate]",44.8 ± 5.26 µM,21.8 ± 2.66 µM,44.1 ± 2.89 µM,> 100 µM,29.9 ± 0.8 µM
"COc1ccccc1NCC(O)COC(=O)[C@]1(C)CCC[C@]2(C)c3ccc(C(C)C)cc3CCC12 (stereo partly drawn) [Compound 3e, (1R,4aS)-2-Hydroxy-3-(2-Methoxyphenylamino)Propyl-7-Isopropyl-1,4a-Dimethyl-1,2,3,4,4a,9, 10,10a-Octahydrophenanthrene-1-Carboxylate]",26.1 ± 1.92 µM,28.5 ± 1.35 µM,27.4 ± 0.51 µM,32.3 ± 1.56 µM,19.5 ± 2.23 µM
"COc1cccc(NCC(O)COC(=O)[C@]2(C)CCC[C@]3(C)c4ccc(C(C)C)cc4CCC23)c1 (stereo partly drawn) [Compound 3f, (1R,4aS)-2-Hydroxy-3-(3-Methoxyphenylamino)Propyl-7-Isopropyl-1,4a-Dimethyl-1,2,3,4,4a,9, 10,10a-Octahydrophenanthrene-1-Carboxylate]",21.9 ± 8.61 µM,18.4 ± 1.45 µM,17.4 ± 4.32 µM,> 100 µM,18.01 ± 0.09 µM
"COc1ccc(NCC(O)COC(=O)[C@]2(C)CCC[C@]3(C)c4ccc(C(C)C)cc4CCC23)cc1 (stereo partly drawn) [Compound 3g, (1R,4aS)-2-Hydroxy-3-(4-Methoxyphenylamino)Propyl-7-Isopropyl-1,4a-Dimethyl-1,2,3,4,4a,9, 10,10a-Octahydrophenanthrene-1-Carboxylate]",> 100 µM,51.7 ± 1.85 µM,> 100 µM,> 100 µM,> 100 µM
"CC(C)c1ccc2c(c1)CCC1[C@](C)(C(=O)OCC(O)CNc3ccccc3F)CCC[C@]21C (stereo partly drawn) [Compound 3h, (1R,4aS)-2-Hydroxy-3-(2-Fluorophenylamino)Propyl-7-Isopropyl-1,4a-Dimethyl-1,2,3,4,4a,9,10, 10a-Octahydrophenanthrene-1-Carboxylate]",30.2 ± 3.4 µM,17.5 ± 3.51 µM,45.7 ± 5.8 µM,> 100 µM,> 100 µM
"CC(C)c1ccc2c(c1)CCC1[C@](C)(C(=O)OCC(O)CNc3cccc(F)c3)CCC[C@]21C (stereo partly drawn) [Compound 3i, (1R,4aS)-2-Hydroxy-3-(3-Fluorophenylamino)Propyl-7-Isopropyl-1,4a-Dimethyl-1,2,3,4,4a,9,10, 10a-Octahydrophenanthrene-1-Carboxylatev]",> 100 µM,> 100 µM,> 100 µM,> 100 µM,> 100 µM
"CC(C)c1ccc2c(c1)CCC1[C@](C)(C(=O)OCC(O)CNc3ccc(F)cc3)CCC[C@]21C (stereo partly drawn) [Compound 3j, (1R,4aS)-2-Hydroxy-3-(4-Fluorophenylamino)Propyl-7-Isopropyl-1,4a-Dimethyl-1,2,3,4,4a,9,10, 10a-Octahydrophenanthrene-1-Carboxylate]",15.6 ± 1.45 µM,14.2 ± 1.7 µM,20.7 ± 2.31 µM,28.7 ± 0.55 µM,18.9 ± 1.66 µM
"CC(C)c1ccc2c(c1)CCC1[C@](C)(C(=O)OCC(O)CNc3cccc(Cl)c3)CCC[C@]21C (stereo partly drawn) [Compound 3k, (1R,4aS)-2-Hydroxy-3-(3-Chlorophenylamino)Propyl-7-Isopropyl-1,4a-Dimethyl-1,2,3,4,4a,9,10, 10a-Octahydrophenanthrene-1-Carboxylate]",18.1 ± 2.33 µM,13.1 ± 2.66 µM,18.2 ± 4.06 µM,35.3 ± 0.57 µM,25.1 ± 4.8 µM
"CC(C)c1ccc2c(c1)CCC1[C@](C)(C(=O)OCC(O)CNc3ccc(Cl)cc3)CCC[C@]21C (stereo partly drawn) [Compound 3l, (1R,4aS)-2-Hydroxy-3-(4-Chlorophenylamino)Propyl-7-Isopropyl-1,4a-Dimethyl-1,2,3,4,4a,9,10, 10a-Octahydrophenanthrene-1-Carboxylate]",> 100 µM,34.48 ± 0.02 µM,> 100 µM,> 100 µM,> 100 µM
"CC(C)c1ccc2c(c1)CCC1[C@](C)(C(=O)OCC(O)CNc3cccc(Br)c3)CCC[C@]21C (stereo partly drawn) [Compound 3m, (1R,4aS)-2-Hydroxy-3-(3-Bromophenylamino)Propyl-7-Isopropyl-1,4a-Dimethyl-1,2,3,4,4a,9,10, 10a-Octahydrophenanthrene-1-Carboxylate]",19.6 ± 1.12 µM,16.5 ± 5.2 µM,23.2 ± 2.78 µM,> 100 µM,30.3 ± 0.59 µM
"CC(C)c1ccc2c(c1)CCC1[C@](C)(C(=O)OCC(O)CNc3ccc(Br)cc3)CCC[C@]21C (stereo partly drawn) [Compound 3n, (1R,4aS)-2-Hydroxy-3-(4-Bromophenylamino)Propyl-7-Isopropyl-1,4a-Dimethyl-1,2,3,4,4a,9,10, 10a-Octahydrophenanthrene-1-Carboxylate]",19.1 ± 5.23 µM,9.91 ± 7 µM,17.9 ± 4.47 µM,> 100 µM,19 ± 2.11 µM
"C#Cc1cccc(NCC(O)COC(=O)[C@]2(C)CCC[C@]3(C)c4ccc(C(C)C)cc4CCC23)c1 (stereo partly drawn) [Compound 3o, (1R,4aS)-2-Hydroxy-3-(3-Ethynylphenylamino)Propyl-7-Isopropyl-1,4a-Dimethyl-1,2,3,4,4a,9, 10,10a-Octahydrophenanthrene-1-Carboxylate]",22.3 ± 2.74 µM,13.4 ± 5.41 µM,20 ± 1.09 µM,> 100 µM,23.1 ± 2.23 µM
"CC(C)c1ccc2c(c1)CCC1[C@](C)(C(=O)OCC3CN(c4ccccc4)C(=O)O3)CCC[C@]21C (stereo partly drawn) [Compound 4a, (1R,4aS)-(2-Oxo-3-Phenyloxazolidin-5-yl)Methyl-7-Isopropyl-1,4a-Dimethyl-1,2,3,4,4a,9,10,10a-Octahydrophenanthrene-1-Carboxylate]",4.83 ± 0.77 µM,11 ± 4.41 µM,9.69 ± 0.13 µM,> 100 µM,> 100 µM
"Cc1ccccc1N1CC(COC(=O)[C@]2(C)CCC[C@]3(C)c4ccc(C(C)C)cc4CCC23)OC1=O (stereo partly drawn) [Compound 4b, (1R,4aS)-(3-(2-Methylphenyl)-2-Oxooxazolidin-5-yl)Methyl-7-Isopropyl-1,4a-Dimethyl-1,2,3,4,4a,9,10,10a-Octahydrophenanthrene-1-Carboxylate]",27.7 ± 5.03 µM,25 ± 5.02 µM,> 100 µM,> 100 µM,> 100 µM
"Cc1cccc(N2CC(COC(=O)[C@]3(C)CCC[C@]4(C)c5ccc(C(C)C)cc5CCC34)OC2=O)c1 (stereo partly drawn) [Compound 4c, (1R,4aS)-(3-(3-Methylphenyl)-2-Oxooxazolidin-5-yl)Methyl-7-Isopropyl-1,4a-Dimethyl-1,2,3,4,4a,9,10,10a-Octahydrophenanthrene-1-Carboxylate]",9.13 ± 2.77 µM,10.5 ± 1.44 µM,31.96 ± 0.23 µM,36.2 ± 2.68 µM,> 100 µM
"Cc1ccc(N2CC(COC(=O)[C@]3(C)CCC[C@]4(C)c5ccc(C(C)C)cc5CCC34)OC2=O)cc1 (stereo partly drawn) [Compound 4d, (1R,4aS)-(3-(4-Methylphenyl)-2-Oxooxazolidin-5-yl)Methyl-7-Isopropyl-1,4a-Dimethyl-1,2,3,4,4a,9,10,10a-Octahydrophenanthrene-1-Carboxylate]",2.91 ± 2.38 µM,5.97 ± 0.87 µM,21.1 ± 1.96 µM,30.6 ± 1.99 µM,19.7 ± 1.33 µM
"COc1ccccc1N1CC(COC(=O)[C@]2(C)CCC[C@]3(C)c4ccc(C(C)C)cc4CCC23)OC1=O (stereo partly drawn) [Compound 4e, (1R,4aS)-(3-(2-Methoxyphenyl)-2-Oxooxazolidin-5-yl)Methyl-7-Isopropyl-1,4a-Dimethyl-1,2,3,4,4a,9,10,10a-Octahydrophenanthrene-1-Carboxylate]",7.99 ± 6.35 µM,13.2 ± 1.15 µM,20.5 ± 0.97 µM,40.6 ± 1.96 µM,> 100 µM
